Reference: patent US20230065953A1, “NOVEL HETEROARYL-TRIAZOLE COMPOUNDS AS PESTICIDES” (Bayer Aktiengesellschaft, priority 2019, published 2023)

Assays:
Format in all cases: in vivo
[1] = test system: adult cat fleas (Ctenocephalides felis); experiment: Ctenocephalides felis in-vitro contact test, adult cat flea; details: 5 μg/cm^2 (=500 g/ha), after 48 hours
Outline: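 After 48 h of room-temperature exposure in tubes whose walls carried dried compound residue (5 μg/cm^2, from 900 ppm acetone solution), adult cat fleas (5-10 per tube) were heat-challenged at 45-50° C up to 5 min. Fleas unable to climb away were counted dead or moribund, expressed as % efficacy.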

[2] = test system: Rhipicephalus microplus larvae (strain Parkhurst, resistant against synthetic pyrethroids); experiment: Rhipicephalus (Boophilus) microplus in-vitro contact test, larval cattle tick; details: 5 μg/cm^2 (=500 g/ha), after 48 hours, read-out: efficacy (larvae dead or moribund)
Outline: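 Larvae exposed by contact to a dried acetone film on glass; a 900 ppm solution yields 5 μg/cm^2. Scoring after 48 h at 27° C. counts dead plus moribund larvae as efficacy.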

[3] = test system: green peach aphid (Myzus persicae); experiment: Myzus persicae spray test; details: foliar, 120 h, Chinese cabbage leaf disks, after 5 days
Outline: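 Percent mortality read 5 days after spraying, where 100% is total kill and 0% none. The spray contained compound in acetone plus dimethylformamide, diluted with 1000 ppm emulsifier water. It was applied to Brassica pekinensis leaf disks carrying mixed-instar green peach aphids.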

[4] = test system: larvae of the banded cucumber beetle (Diabrotica balteata); experiment: Diabrotica balteata spray test; details: 168 h, 100 g/ha (=32 μg/well), wheat seeds, after 7 days, read-out: efficacy (seedling growth)
Outline: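 Efficacy in % was read 7 days after infesting with 10-20 larvae per unit. Before infestation, 1-day-germinated wheat seedlings (5 per well) were sprayed with the active ingredient, formulated in acetone and dimethylformamide plus emulsifier and diluted with water containing emulsifier.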

[5] = test system: larvae of the southern green stink bug (Nezara viridula); experiment: Nezara viridula spray test; details: in Hordeum vulgare, 96 h
Outline: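 Mortality (%) of stink bug larvae on treated barley (Hordeum vulgare) was scored 4 days after infestation. Test solutions came from an acetone/DMF concentrate diluted with water containing 1000 ppm emulsifier and were sprayed onto plants before larvae were added.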

[6] = test system: fall armyworm larvae (Spodoptera frugiperda); experiment: Spodoptera frugiperda spray test (maize leaf sections); details: 168 h
Outline: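 Percent kill of Spodoptera frugiperda caterpillars read at day 7. Larvae placed on dried Zea mays leaf pieces previously sprayed with test preparation, made from acetone plus DMF and diluted with emulsifier-containing water (1000 ppm).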

[7] = test system: brown planthopper (Nilaparvata lugens); experiment: Nilaparvata lugens spray test; details: 96 h, rice plants, after 4 days
Protocol: Nilaparvata lugens—Spray Test • Solvent: 78.0 parts by weight of acetone • 1.5 parts by weight of dimethylformamide • Emulsifier: alkylarylpolyglycol ether
To produce a suitable preparation of active compound, 1 part by weight of active compound is mixed with the stated amount of solvents and is diluted with water, containing an emulsifier concentration of 1000 ppm, to the desired concentration. Further test concentrations are prepared by dilution with emulsifier containing water.
Rice plants (Oryza sativa) are sprayed with a preparation of the active ingredient of the desired concentration and the plants are infested with the brown planthopper (Nilaparvata lugens).
After 4 days mortality in % is determined. 100% means all planthoppers have been killed and 0% means none of the planthoppers have been killed.

[8] = test system: adult mosquitoes Aedes aegypti strain MONHEIM; experiment: Aedes aegypti test (AEDSAE surface treatment & contact assay); details: 24 hours after contact, read-out: efficacy (mortality); for mortality at 20 mg/m2: surface concentration 20 mg/m^2, 30 min exposure; for mortality at 4 mg/m2: surface concentration 4 mg/m^2, 30 min exposure
Protocol: Aedes aegypti test (AEDSAE surface treatment & contact assay) • Solvent: Aceton+2000 ppm rapeseed oil methyl ester (RME)
(§1) In order to produce a sufficient, active ingredient containing solution it is necessary to solve the test compound in the solvent-mix (acetone at 2 mg/ml/RME 2000 ppm). This solution is pipetted onto a glazed tile and after evaporation of the acetone, adult mosquitoes of the species Aedes aegypti strain MONHEIM are placed onto the dried surface. The exposure time is 30 minutes.
(§2) Mortality in percent (%) is determined 24 hours after contact of the insects to the treated surface. 100% mortality means that all tested insects are dead, whereas 0% means that no insect died.

[9] = test system: adult mosquitoes Anopheles funestus strain FUMOZ-R; experiment: Anopheles funestus test (ANPHFU surface treatment & contact assay); details: 24 hours after contact, read-out: efficacy (mortality); for mortality at 4 mg/m2: surface concentration 4 mg/m^2, 30 min exposure; for mortality at 20 mg/m2: surface concentration 20 mg/m^2, 30 min exposure
Protocol: Anopheles funestus Test (ANPHFU Surface Treatment & Contact Assay) • Solvent: Aceton+2000 ppm rapeseed oil methyl ester (RME)
as §1, with “Anopheles funestus” for “Aedes aegypti”, “FUMOZ-R (Hunt et al., Med. Vet. Entomol. 2005 September; 19(3): 271-275)” for “MONHEIM”
as §2

[10] = test system: adult flies Musca domestica strain WHO-N; experiment: Musca domestica test (MUSCDO surface treatment & contact assay); details: 24 hours after contact, read-out: efficacy (mortality); for mortality at 20 mg/m2: surface concentration 20 mg/m^2, 30 min exposure; for mortality at 4 mg/m2: surface concentration 4 mg/m^2, 30 min exposure
Outline: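 Percent kill read 24 h post-contact, after adult flies (strain WHO-N) spent 30 min on a glazed tile treated with test solution (acetone, 2 mg/ml, plus 2000 ppm rapeseed oil methyl ester) and dried.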

[11] = test system: adult brown dog ticks (Rhipicephalus sanguineus); experiment: Rhipicephalus sanguineus in-vitro contact test with adult brown dog ticks; details: 5 μg/cm^2 (=500 g/ha), after 48 hours, read-out: efficacy (ticks dead or moribund)
Protocol: Rhipicephalus sanguineus—In-Vitro Contact Tests with Adult Brown Dog Ticks
9 mg compound is solved in 1 mL acetone and diluted with acetone to the desired concentration. 250 μL of the test solution is filled in 25 mL glass test tubes and homogeneously distributed on the inner walls by rotation and tilting on a shaking device (2 h at 30 rpm). With a compound concentration of 900 ppm, an inner surface of 44.7 cm^2 and a homogeneous distribution, a dose of 5 μg/cm^2 is achieved.
After the solvent has evaporated, each test tube is filled with 5-10 adult brown dog ticks (Rhipicephalus sanguineus), closed with a perforated lid and incubated in a lying position at room temperature and relative humidity. After 48 hours efficacy is determined. The ticks are patted on the ground of the tubes and are incubated on a heating plate at 45-50° C. for at most 5 minutes. Immotile or uncoordinated moving ticks, which are not able to escape the heat by climbing upwards, are marked as dead or moribund.
An efficacy of 100% means all ticks are dead or moribund; 0% means no ticks are dead or moribund.

[12] = test system: adult engorged female ticks (Rhipicephalus microplus); experiment: Rhipicephalus (Boophilus) microplus injection test; details: 168 h, 4 μg/animal, egg deposition after 7 days, read-out: efficacy (infertile eggs)
Outline: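 Five adult engorged female ticks each injected into the abdomen with 1 μL of compound in DMSO, then kept in a climate chamber. Fertile egg deposition assessed after 7 days, with unclear eggs held until hatching around 42 days; efficacy 100% means all eggs infertile, 0% all fertile.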

[13] = test system: adult unfed cat fleas (Ctenocephalides felis); experiment: Ctenocephalides felis oral test; details: 48 h
Outline: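 About 20 adult unfed fleas fed through parafilm on cattle blood containing compound (DMSO stock diluted in blood), blood held at 37 °C and fleas at room temperature. Mortality (%) scored after 2 days.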

Structure (SMILES) | efficacy (fleas dead or moribund) [1] | pest or weed control at 5 µg/cm2 [2] | mortality at 100 g/ha [3] | pest or weed control at 32 µg/disc, 100 g/ha [4] | mortality at 500 g/ha [5] | mortality at 100 g/ha [6] | mortality at 500 g/ha [7] | mortality at 20 mg/m2 [8] | mortality at 4 mg/m2 [9] | mortality at 20 mg/m2 [9] | mortality at 100 g/ha [5] | mortality at 20 mg/m2 [10] | mortality at 4 mg/m2 [8] | mortality at 4 mg/m2 [10] | pest or weed control at 5 µg/cm2, 500 g/ha [11] | pest or weed control at 0.004 mg [12] | mortality at 100 g/ha ([7]; 100 g/ha) | mortality at 100 ppm [13]
CNC(=O)c1cnc(-n2nc(C)nc2[C@H](C)NC(=O)c2cc(C(F)(F)F)cc(C(F)(F)F)c2)s1 [I-102] | 100% | 100% | 90% | 100% | 100% | 100% | 100% |  |  |  |  |  |  |  |  |  |  | 
C[C@H](NC(=O)c1cc(Br)cc(OC(F)(F)F)c1)c1ncnn1-c1ncc(C(=O)N(C)C)s1 [I-118] |  |  |  | 100% | 100% | 100% |  | 80 to 100% | 80 to 100% | 80 to 100% | 100% | 80 to 100% |  |  |  |  |  | 
C[C@H](NC(=O)c1cc(OC(F)F)cc(OC(F)F)c1)c1ncnn1-c1ncc(C(=O)N(C)C)s1 [I-119] |  |  | 90% | 100% | 100% | 100% | 100% |  |  |  | 100% |  |  |  |  |  |  | 
C[C@H](NC(=O)c1cc(OC(F)(F)F)cc(C2(C#N)CC2)c1)c1ncnn1-c1ncc(C#N)s1 [I-142] |  |  | 90% | 100% | 100% | 100% |  | 80 to 100% |  | 80 to 100% |  | 80 to 100% | 80 to 100% | 90 to 100% |  |  |  | 
Cc1nc([C@H](C)NC(=O)c2cc(OC(F)(F)F)cc(C3CC3)c2)n(-c2ncc(C#N)s2)n1 [I-91] |  | 100% | 90% | 100% | 100% | 100% | 100% | 80 to 100% |  |  |  | 80 to 100% |  | 90 to 100% | 100% |  |  | 
CC(NC(=O)c1cc(OC(F)(F)F)cc(C2(C#N)CC2)c1)c1ncnn1-c1ncc(C#N)s1 (racemic) [I-87, (rac)-3-(1-cyanocyclopropyl)-N-{1-[1-(5-cyano-1,3-thiazol-2-yl)-1H-1,2,4-triazol-5-yl]ethyl}-5-(trifluoromethoxy)benzamide] |  |  | 100% | 100% |  | 100% |  | 80 to 100% |  | 80 to 100% |  | 80 to 100% | 80 to 100% | 90 to 100% |  |  |  | 
Cc1nc([C@H](C)NC(=O)c2cc(OC(F)(F)F)cc(C3CC3)c2)n(-c2ncc(C(=O)N(C)CC3CC3)s2)n1 [I-128] |  |  | 90% | 100% | 100% | 100% | 100% |  |  |  | 90% |  |  |  |  |  |  | 
C[C@H](NC(=O)c1cc(OC(F)F)cc(SC(F)F)c1)c1ncnn1-c1ncc(C#N)s1 [I-130] |  |  | 90% | 100% | 100% | 100% |  | 80 to 100% |  | 80 to 100% |  | 80 to 100% |  | 90 to 100% |  |  |  | 
C[C@H](NC(=O)c1cc(OC(F)(F)F)cc(C2CC2)c1)c1ncnn1-c1ncc(C(=O)N(C)C)s1 [I-89] | 100% | 100% | 100% | 100% | 100% | 100% | 100% | 80 to 100% |  |  |  | 80 to 100% |  |  | 80% |  |  | 
Cc1nc([C@H](C)NC(=O)c2cc(C(F)(F)F)cc(C(F)(F)F)c2)n(-c2ncc(C(=O)N(C)C(C)C)s2)n1 [I-10] | 90% | 100% |  | 100% |  | 100% |  |  |  |  |  |  |  |  | 100% | 100% | 90% | 100%
C[C@H](NC(=O)c1cc(C(F)(F)F)cc(S(C)(=O)=O)c1)c1ncnn1-c1ncc(C(=O)N(C)C)s1 [I-65] | 100% |  | 100% | 100% | 100% | 100% | 90% |  |  |  | 100% |  |  |  |  |  |  | 
C[C@H](NC(=O)c1cc(Cl)cc(C(F)(F)Cl)c1)c1ncnn1-c1ncc(C#N)s1 [I-85] |  |  | 100% | 100% |  | 100% |  | 80 to 100% | 80 to 100% | 80 to 100% |  | 80 to 100% | 80 to 100% | 90 to 100% |  |  |  | 
C[C@H](NC(=O)c1cc(OC(F)(F)F)cc(S(C)(=O)=O)c1)c1ncnn1-c1ncc(C(=O)N(C)C)s1 [I-120] |  |  | 90% |  | 100% | 100% | 100% |  |  |  | 100% |  |  |  |  |  |  | 
